Test results as given in patent US20230390223A1, “ADMINISTRATION OF […] COMPOSITIONS FOR TREATING NERVOUS SYSTEM DISORDERS” (PaxMedica, Inc., priority 2020, published 2023).
Values joined by “and” are separate entries in the source; they are usually repeats but may differ in a detail not shown here. Equal values may be shown once. Read-outs that look alike come from different tables or passages of the source.

Legend:
[1] = tested on: B6.129P2-Fmr1tm1Cgr/J transgenic (TG) mice; assay: Light/dark preference test (LDT), anxiety-like behavior, SmartCage; format: in vivo
Source text: The light/dark preference test (LDT) is one of the most widely used tests in pharmacology to measure unconditioned anxiety-like behavior in mice. The test is based on the natural aversion of mice to brightly illuminated areas and on their spontaneous exploratory behavior in response to a novel environment and light. See, Takao, K., et al., Light/dark Transition Test for Mice. J. Vis. Exp. (1), e104, doi:10.3791/104 (2006).
This study used a SmartCage™ system, which is an automated non-invasive rodent behavioral monitoring system which enables biomedical researchers to conduct a variety of neurobehavioral assays through consistent and accurate monitoring of rodent home cage activity and behavior. See, Xie X. S. et al. (2012) Rodent Behavioral Assessment in the Home Cage Using the SmartCage™™ System. In: Chen J., Xu X M., Xu Z., Zhang J. (eds) Animal Models of Acute Neurological Injuries II. Springer Protocols Handbooks. Humana Press, Totowa, NJ.
• 1. N=6 mice per group. • 2. All behavioral testing included a group of untreated wild type controls. • 3. Dosing for the various groups were as follows: • a. […] Group 2: IP saline, […], administered weekly to animals beginning at 9 weeks of age and continuing for four weeks (i.e. given at Age Weeks 9, 10, 11 and 12). • c. […] Behavioral tests for all groups (Groups 1-5) began the following day after the last day of IN dosing (Weeks 13-14 of age). • 2. Blood samples (PK testing) were collected from all mice at the end of 12 Weeks of age, just prior to starting the behavioral tests in Week 13. • 3. Brain tissue (for biochemistry testing) was harvested from all mice upon sacrifice at the conclusion of all behavioral testing at the end of 13-14 Weeks of age.
(§1) Male B6.129P2-Fmr1tm1Cgr/J TG mice were purchased from Jackson Laboratories, Bar Harbor, Maine. These mice were of approximately 8(±1) weeks of age. […] Mice accommodated to the research facility for the remainder of the week. Dosing began on the following Monday. Body weights of all mice were recorded for health monitoring purposes.
Dosing was carried out over the course of 28 days as instructed by the study sponsor. • 1. Prior to the beginning of the light/dark test, a dark box (red transparent enclosure with an opening for the mouse to enter) is placed in the SmartCage™. • 2. An individual mouse is placed in the open/non-dark box side (“Light Zone”), with its head facing away from the dark box. • 3. The mouse is then allowed to freely explore the SmartCage™ and enter the dark box “Dark Zone” at its own discretion over a 10-minute span. • 4. Anxiety-like behavior is assessed based on the SmartCage™ monitoring of time spent in the Light Zone, the number of Light Zone entries, and % Time Spent in the Light Zone. • 5. […] Wildtype Control data (collected separately prior to the beginning […] of the B6.129P2-Fmr1tm1Cgr/J TG mice) was added to the final data analysis to serve as a comparison for naive, male C57BL/6 mice.
No food or water is withheld and only natural stressors such as light are used. Four similarly calibrated SmartCages™ were used to record four mice simultaneously (example cage shown below). All Light/Dark tests were completed in one day.
Light/Dark Test Setup—Dark Box placed within the transparent homecage; homecage placed within the SmartCage™ monitoring system.

[2] = tested on: mouse model of epilepsy; conditions: cited from earlier work
[3] = tested on: B6.129P2-Fmr1tm1Cgr/J transgenic (TG) mice; assay: Locomotor activity test, SmartCage ~24 h recording; format: in vivo; conditions: for Active time: versus WT control group
[4] = tested on: B6.129P2-Fmr1tm1Cgr/J transgenic (TG) mice; assay: Step through passive avoidance test (learning and memory); format: in vivo
Source text: The Passive Avoidance task is useful for evaluating the effect of novel chemical entities on learning and memory as well as studying the mechanisms involved in rodent models of CNS disorders. In this test, the test chamber is divided into a lighted compartment and a dark compartment, with a gate between the two. The test animals explored both compartments on the first day. The next day, they are given a mild foot shock in the dark compartment and they will learn to associate the dark compartment with the foot shock. In order to test their learning and memory, the mice are then placed back in the lighted compartment. Passive avoidance behavior of rodents is defined as the suppression of their innate preference for the dark compartment. Mice with normal learning and memory will avoid entering the dark chamber. Learning and memory from the previous day is measured by recording the latency to cross through the gate between the two compartments. See, J. David Sweatt, Chapter 4: Rodent Behavioral Learning and Memory Models, Editor: J. David Sweatt. Mechanisms of Memory (Second Edition), Academic Press, 2010, Pages 76-103, ISBN 9780123749512.
This study used a SmartCage™ system, which is an automated non-invasive rodent behavioral monitoring system which enables biomedical researchers to conduct a variety of neurobehavioral assays through consistent and accurate monitoring of rodent home cage activity and behavior. See, Xie et al, 2012.
• 1. N=6 mice per group. • 2. All behavioral testing included a group of untreated wild type (WT) controls. • 3. Dosing for the various groups were as follows: • a. […] Group 2: IP saline, […], administered weekly to animals beginning at 9 weeks of age and continuing for four weeks (i.e. given at Age Weeks 9, 10, 11 and 12). • c. […] Behavioral tests for all groups (Groups 1-5) began the following day after the last day of IN dosing (Weeks 13-14 of age). • 2. Blood samples (for PK testing) were collected from all mice at the end of Week 12 of age, just prior to starting the behavioral tests in Week 13 of age. • 3. Brain tissue (for biochemistry testing) was harvested from all mice upon sacrifice at the conclusion of all behavioral testing at the end of Week 13-14 of age.
as §1, with “TG (TG)” for “TG”, “8 (±1)” for “8(±1)”
Dosing was carried out over the course of 28 days as instructed by the study Sponsor. […]

[5] = Determination of suramin in plasma and brain tissue after IP or IN administration; format: in vivo, mice; conditions: for Kp: male, Fmr1-knockout B6.129P2-Fmr1tm1Cgr/J, mouse, brain/plasma, other: intranasal, 100 mg/mL, read-out: Average Brain Tissue to Plasma Partitioning Ratio
Source text: For the study, male Fmr1-knockout B6.129P2-Fmr1tm1Cgr/J TG mice were purchased from Jackson Laboratories, Bar Harbor, Maine. These mice were of approximately 8 weeks of age. […] The absence of FMRP in these mice induces an over-activation of RAC1, a protein of the Rho GTPase subfamily that plays a critical role in dendritic morphology and synaptic function. These B6.129P2-Fmr1tm1Cgr/J TG mice, provide an animal model for cognitive disabilities and neurodevelopmental disorders.
Mice were accommodated to the research facility for approximately a week. Body weights of all mice were recorded for health monitoring purposes.
The remaining ingredients, except the cyclodextrin are added with mixing. The cyclodextrin is then added with mixing until dissolved. The resultant solution is allowed to sit for 2 hours before using.
Blood samples were collected from all mice at the end of 12 weeks of age. Brain tissue was harvested from all mice upon sacrifice 13-14 weeks of age. Standard sample preparation and analytical techniques were used to obtain the data.

[6] = 10-minute test, group regimens: A-804598 IP 30 mg/kg/day, tangeretin IP 10 mg/kg/day, emodin+piperine PO 20 mg/kg each twice per day
[7] = 10-minute test, suramin IN weekly (100 mg/mL, one spray per nostril, 4 weeks)
[8] = suramin IP 20 mg/kg weekly for four weeks
[9] = 5-minute test, suramin IP 20 mg/kg weekly for four weeks

C[C@H](N/C(=N/C#N)Nc1cccc2ncccc12)c1ccccc1 [Formulation A-804598, N-Cyano-N″-[(1S)-1-phenylethyl]-N′-5-quinolinyl-guanidine]
number of Light Zone entries ([1]; 10-minute test, each group at its regimen, compared to WT mice): significantly lower number of light zone entries

O=C(NCC1(N2CCN(c3ccccc3)CC2)CCOCC1)c1cccnc1Sc1ccccc1 [JNJ-47965567, 2-(Phenylthio)-N-[[tetrahydro-4-(4-phenyl-1-piperazinyl)-2H-pyran-4-yl]methyl]-3-pyridinecarboxamide]
effect on epileptic seizures [2]: suppress epileptic seizures

COc1ccc(-c2cc(=O)c3c(OC)c(OC)c(OC)c(OC)c3o2)cc1 [Tangeretin, 5,6,7,8-tetramethoxy-2-(4-methoxyphenyl)-4H-1-benzopyran-4-one]
percentage of time spent in the Light Zone [1, 6]: higher percentage of time spent in the Light Zone | total time spent in the light zone [1, 6]: ~6.5 min | Active time ([3]; A-804598 IP 30 mg/kg/day, tangeretin IP 10 mg/kg/day): greater activity compared to the WT control group | total number of Dark Zone Entries ([4]; test day, tangeretin IP 10 mg/kg/day, emodin+piperine PO 20 mg/kg each twice per day, other groups at their regimens): one

Cc1ccc(C(=O)Nc2ccc(S(=O)(=O)O)c3cc(S(=O)(=O)O)cc(S(=O)(=O)O)c23)cc1NC(=O)c1cccc(NC(=O)Nc2cccc(C(=O)Nc3cc(C(=O)Nc4ccc(S(=O)(=O)O)c5cc(S(=O)(=O)O)cc(S(=O)(=O)O)c45)ccc3C)c2)c1 [suramin, 1,3,5-Naphthalenetrisulfonic acid, 8,8′-[carbonylbis[imino-3,1-phenylenecarbonylimino(4-methyl-3,1-phenylene)carbonylimino]]bis-]
Average Plasma Concentration ([5]; Group 1: IP 20 mg/kg weekly for four weeks, blood at end of 12 weeks of age, 20 mg/kg): 18733 ng/ml and 14.440 μM | Average Plasma Concentration ([5]; Group 3: IN formulation 100 mg/mL, one spray per nostril, one time per day for 28 days): 1637 ng/ml and 1.262 μM | Average Plasma Concentration ([5]; Group 4: IN formulation 100 mg/mL, one spray per nostril, every other day for 28 days): 1578 ng/ml and 1.217 μM | Average Plasma Concentration ([5]; Group 5: IN formulation 100 mg/mL, one spray per nostril, one time every week for 4 weeks): 278.7 ng/ml and 0.215 μM | Kp ([5]; one spray per nostril, Group 3: IN formulation 100 mg/mL, one spray per nostril, one time per day for 28 days): 0.069 | Kp ([5]; one spray per nostril, Group 4: IN formulation 100 mg/mL, one spray per nostril, every other day for 28 days): 0.089 | Kp ([5]; one spray per nostril, Group 5: IN formulation 100 mg/mL, one spray per nostril, one time every week for 4 weeks): 0.235 | percentage of time spent in the Light Zone [1, 7]: higher percentage of time spent in the Light Zone | total time spent in the light zone [1, 7]: ~6.5 min | Dark Zone entry latency ([1]; all IN suramin groups (daily, every other day, weekly; 100 mg/mL, one spray per nostril, 28 days)): 60 to 65 s | Dark Zone entry latency [1, 8]: 30 to 40 s | Active time ([3]; all IN Suramin groups (Daily, Weekly, Every 2 Days)): greater activity compared to the WT control group | Rearing count ([3]; suramin IN every 2 days, versus WT control): comparable to the WT control group | percentage of time spent in the light zone on the test day [4, 9]: approximately 50% | total light zone time on the test day [4, 9]: lower total time | Dark Zone entry latency, Test Day (24 h post-foot shock) [4, 8]: shortest latency for entering the dark compartment
